Measurements from patent US10987339B2, “Uses of butylidenephthalide” (EVERFRONT BIOTECH INC., priority 2015, dated 2021).

What was measured:
[1] = tested on: ALDH; experiment: ALDEFLUOR flow cytometry analysis of ALDH activity; type: cell-based; conditions: group without DEAB addition, 0, 25 and 50 μg/ml BP, 24 hours, FIG. 4
Experimental: ALDH protein is also an important stemness-maintenance marker of cancer stem cells and participates in the regulation of the self-renewal and differentiation of cancer stem cells. HNC-TIC-like oral stem cells (i.e., ALDH1^+CD44^+-1 cell line or ALDH1^+CD44^+-2 cell line) were treated with different concentrations (0, 25 and 50 μg/ml) of BP for 24 hours, and then, 1×10^5 cells obtained from each group were separately suspended in 50 μl of a stem cell detection kit (i.e., ALDEEFLUOR array kit, purchased from […] Technologies Inc., Vancouver, Canada) buffer and the cell suspension of each group was separately added with ALDEFLUOR to a final concentration of 1 μM. Thereafter, a sample of each group was stained by […] and then analyzed by flow cytometry analysis to determine the ALDH activity of HNC-TIC-like oral stem cells (i.e., ALDH1^+CD44^+-1 cell line and ALDH1^+CD44^+-2 cell line).
The above experimental procedure was repeated, but the cell suspension of each group was further added with N,N-diethylaminobenzaldehyde (DEAB, i.e., an inhibitor of ALDH) to a final concentration of 150 μM of DEAB separately.

[2] = tested on: NHOKs (normal human oral keratinocytes); experiment: MTT assay, viability of NHOKs; type: cell-based; conditions: 24 hours
Experimental: (§1) To investigate the effect of BP on inhibiting the growth of cancer stem cells, NHOKs (normal human oral keratinocytes) and HNC-TIC (head and neck cancer-derived tumor initiating cell)-like oral stem cells (i.e., ALDH1^+CD44^+-1 cell line or ALDH1^+CD44^+-2 cell line) were treated with different concentrations (0, 25, 50 and 100 μg/ml) of BP for 24 hours, and then, an MTT assay was utilized to analyzed the viabilities of NHOKs and HNC-TIC-like oral stem cells (i.e., ALDH1^+CD44^+-1 cell line and ALDH1^+CD44^+-2 cell line).

[3] = tested on: Sox-2; experiment: Western blotting, Sox-2 expression in HNC-TIC-like oral stem cells; type: cell-based; conditions: ALDH1+CD44+-1 and ALDH1+CD44+-2 cell lines, 0, 12.5, 25 and 50 μg/ml BP, 24 hours, FIG. 3
Experimental: (§2) It has been known that CD44, CD133, Sox-2 (sex-determining region Y protein (SRY)-related high-mobility group box 2) and Oct4 (octamerbinding transcription factor 4) proteins all are stemness-maintenance markers of cancer stem cells and participate in the regulation of the self-renewal and differentiation of cancer stem cells. MiaPaCa-2 cell line (i.e., a cell line of pancreatic cancer cells) was treated with different concentrations (0, 12.5, 25, and 50 μg/ml) of BP for 24 hours, and then, proteins were extracted from the cells to conduct Western blotting to determine the expressions of Sox-2, CD133 and CD44 proteins in the BP-treated MiaPaCa-2 cells. Yet another. HNC-TIC-like oral stem cells (i.e., ALDH1^+CD44^+-1 cell line or ALDH1^+CD44^+-2 cell line) were treated with different concentrations (0, 12.5, 25, and 50 μg/ml) of BP for 24 hours, and then, proteins were extracted from the cells to conduct Western blotting to determine the expressions of Sox-2 and Oct4 proteins in the BP-treated HNC-TIC-like oral stem cells (i.e., ALDH1^+CD44^+-1 cell line and ALDH1^+CD44^+-2 cell line).

[4] = tested on: HNC-TIC-like oral stem cells (ALDH1+CD44+-1 cell line or ALDH1+CD44+-2 cell line); experiment: Soft agar colony formation assay; type: cell-based
Experimental: In this research, a soft agar colony formation assay was used to investigate the effect of BP on inhibiting the tumor initiating activity of cancer stem cells. First, HNC-TIC-like oral stem cells (i.e., ALDH1^+CD44^+-1 cell line or ALDH1^+CD44^+-2 cell line) were treated with different concentrations (0, 25 and 50 μg/ml) of BP for 24 hours, and then, the treated cells of each group was separately seeded in the top agar [containing DMEM (Dulbecco's Modified Eagle's Medium medium), 10% (v/v) Fetal Calf Serum (FCS) and 0.3% (w/v) agar] (purchased from Sigma-Aldrich) at an initial cell number of 2×10^4. On the other hand, a six-well culture dish was coated with the bottom agar [containing DMEM, 10% (v/v) FCS and 0.6% (w/v) agar](purchased from Sigma-Aldrich), 2 ml for each well. After the bottom agar was solidified, each group of the top agar (containing oral cancer stem cells) was respectively added onto the bottom agar in different wells of the dish, 2 ml for each well. […] Lastly, the bottom agar was stained with 0.005% crystal violet, the number of colonies (with a diameter ≥100 μm) was counted over five fields per well with the use of a microscope, and those fields were photographed. The relative colony-forming ability of cells of each experimental group was calculated based on the result of the group treated with 0 μg/ml of BP.

[5] = tested on: HNC-TIC-like oral stem cells (ALDH1+CD44+-1 cell line and ALDH1+CD44+-2 cell line); experiment: MTT assay, viability of HNC-TIC-like oral stem cells; type: cell-based; conditions: ALDH1+CD44+-1 and ALDH1+CD44+-2 cell lines, 0, 25, 50 and 100 μg/ml BP, 24 hours, FIG. 1
Experimental: as §1

[6] = tested on: Oct4; experiment: Western blotting, Oct4 expression in HNC-TIC-like oral stem cells; type: cell-based; conditions: ALDH1+CD44+-1 and ALDH1+CD44+-2 cell lines, 0, 12.5, 25 and 50 μg/ml BP, 24 hours, FIG. 3
Experimental: as §2

[7] = tested on: HNC-TIC-like oral stem cells stably transfected with GFP-tagged constructs; experiment: Tumor initiating activity animal experiment (subcutaneous GFP-tagged HNC-TIC-like oral stem cells); type: in vivo, BALB/c nu/nu mice
Experimental: In this research, the effect of BP on inhibiting the tumor initiating activity of cancer stem cells was further investigated by animal experiments. First, 5-6 weeks old BALB/c nu/nu mice (weight 18-22 g) were bred under the same condition for 4 weeks. Then, HNC-TIC-like oral stem cells stably transfected with GFP-tagged constructs were injected (1×10^4 cells/0.1 mL/mouse) subcutaneously into the axilla of mice. After tumors reached 100 mm^3, mice were grouped into one control group and two experimental groups (three groups in total, n=3 per group). Then, one experimental group was injected daily with 100 mg/kg of BP for 6 days and another experimental group was injected daily with 200 mg/kg of BP for 6 days. The control group was injected daily with a vehicle (without BP) for 6 days. Ten days after the injection of BP or vehicle, the length and width were measured every 2 days (22 days in total), and then, the average tumor volume was calculated according to the following Formula 1. At the same time, the GFP signal (i.e., green fluorescence) of each group was detected and photographed by the IVIS Imaging system. The GFP intensity of each group was analyzed by Image-Pro Plus software. [length×width^2]/2 (unit: mm^3) Formula 1: […]

[8] = tested on: CD44; experiment: Western blotting, CD44 expression in MiaPaCa-2 cells; type: cell-based; conditions: MiaPaCa-2 cells, 0, 12.5, 25 and 50 μg/ml BP, 24 hours, FIG. 2
Experimental: as §2

[9] = tested on: HNC-TIC-like oral stem cells (ALDH1+CD44+-1 cell line or ALDH1+CD44+-2 cell line); experiment: Transwell invasion assay; type: cell-based
Source text: In this research, the effect of BP on inhibiting the migration and invasion of cancer stem cells was investigated by a transwell invasion assay system (i.e., Transwell® system, purchased from Corning, UK) with a polycarbonate filter membrane of 8-μm pore size (purchased from Corning, UK). First, the polycarbonate filter membrane was coated with Matrigel™ (purchased from BD Pharmingen, USA), and then, the coated membrane was placed in the […] of the transwell invasion assay system. Then, the lower chamber was filled with 10% serum-containing medium. On the other hand, HNC-TIC-like oral stem cells (i.e., ALDH1^+CD44^+-1 cell line or ALDH1^+CD44^+-2 cell line) were treated with different concentrations (0, 25 and 50 μg/ml) of BP for 24 hours, and then, the treated cells of each group was cultured in the upper chamber which was filled with serum-free medium, at a cell density of […] cells/100 μl for 24 hours. […] The invasion cancer cells of each group were counted and photographed over five visual fields of the membrane with the use of a 100-fold magnification under a microscope. The relative invasion ability of cells of each experimental group was calculated based on the result of the group treated with 0 μg/ml of BP.

[10] = tested on: CD133; experiment: Western blotting, CD133 expression in MiaPaCa-2 cells; type: cell-based; conditions: MiaPaCa-2 cells, 0, 12.5, 25 and 50 μg/ml BP, 24 hours, FIG. 2
Experimental: as §2

[11] = tested on: Sox-2; experiment: Western blotting, Sox-2 expression in MiaPaCa-2 cells; type: cell-based; conditions: MiaPaCa-2 cells, 0, 12.5, 25 and 50 μg/ml BP, 24 hours, FIG. 2
Experimental: as §2

In the case of CCCC=C1OC(=O)c2ccccc21 [BP, butylidenephthalide], the “number of live cells with ALDH activity” value [1] is reported as “increased along with the increment in the concentration of BP”, the “viability of NHOKs” value ([2]; 0, 25, 50 and 100 μg/ml BP, MTT, FIG. 1) is reported as “did not decrease along with the increment in the concentration of BP” and the “cytotoxicity to normal cells” value ([2]; NHOKs, up to 100 μg/ml BP) is reported as “no cytotoxicity to normal cells”. The “expression of Sox-2 protein” value [3] was “significantly decreased along with the increment in the concentration of BP”, the “number of colonies in the bottom agar” value ([4]; 0, 25 and 50 μg/ml BP for 24 hours, 4 weeks culture, FIG. 6A) was “significantly decreased along with the increment in the concentration of BP” and the relative colony-forming ability ([4]; 0, 25 and 50 μg/ml BP, relative to 0 μg/ml group, FIG. 6B) was “decreased along with the increment in the concentration of BP”. For the same compound, the “viability of HNC-TIC-like oral stem cells” value [5] was “decreased along with the increment in the concentration of BP”, the “expression of Oct4 protein” value [6] was “significantly decreased along with the increment in the concentration of BP” and the tumor volume ([7]; 100 mg/kg and 200 mg/kg BP groups, daily for 6 days, compared to control group, FIG. 7B) was “decreased over a period of time”. The GFP intensity ([7]; 100 mg/kg and 200 mg/kg BP groups, daily for 6 days, compared to control group, FIG. 7C, 7D) was “significantly decreased”, the “body weight of mice” value ([7]; 100 mg/kg or 200 mg/kg BP injected daily for 6 days, FIG. 7A) was “didn't change significantly” and the “expression of CD44 protein” value [8] was “significantly decreased along with the increment in the concentration of BP”. For the same compound, the “number of cells on the polycarbonate filter membrane” value ([9]; 0, 25 and 50 μg/ml BP for 24 hours, then 24 hours transwell, FIG. 5A) was “significantly reduced along with the increment in the concentration of BP”, the relative invasion ability ([9]; 0, 25 and 50 μg/ml BP, relative to 0 μg/ml group, FIG. 5B) was “decreased along with the increment in the concentration of BP” and the “expression of CD133 protein” value [10] was “significantly decreased along with the increment in the concentration of BP”. For the same compound, the “expression of Sox-2 protein” value [11] was “significantly decreased along with the increment in the concentration of BP”.
